From patent publication US8017828B2, “Utilization of rare sugars in plant or microorganism” (Shikoku Research Institute Incorporated, priority 2004, dated 2011)

Columns and labels:
Bletilla striata = assay: Growth and bulb formation of Bletilla striata seedlings in tissue culture; assay type: in vivo; conditions: for growth when the concentration added to the medium was increased: increased (high) concentration in medium
Procedure: Seedling plants of Bletilla striata obtained by sterile sowing were used in an experiment.
As for the Bletilla striata, by using ½ strength MS medium supplemented with D-psicose, D-allose, D-glucose or D-frucose at a concentration of from 0.005% to 0.05% (w/v), the seedling plants were aseptically transplanted on Feb. 27, 2003, and then, cultivation was carried out under the same conditions as those of the strawberry in Example 3. Then, on Jun. 30, 2003, a survey was carried out with regard to the growth conditions of aerial part and underground part, the number of buds, the ratio of bulb formation, the bulb size and the like.

Cymbidium = assay: Growth of Cymbidium flask seedlings in tissue culture; assay type: in vivo; conditions: 0.005% in MS medium; for Number of lateral buds: non 0; for Aerial part weight: non 2.1; for Underground part weight: non 3.8; for Number of roots: non 10.8
Description: (§1) Flask seedlings of Phalaenopsis orchid and Cymbidium obtained by tissue culture were used in an experiment.
As for Cymbidium, in the same manner as the above Phalaenopsis orchid, MS medium supplemented with D-psicose, D-glucose, D-fructose or D-allose was used, and the flask seedlings were aseptically transplanted on Oct. 4, 2004. At this time, 4 or 5 leaves and 2 roots were left and the rest of them were cut off using a knife. As for the number of seedlings, 4 seedlings were used for 1 test plot, and glass bottles with a capacity of 900 ml and having a hole with a diameter of about 1 cm for preventing dew condensation made in the upper region was used as culture containers. The cultivation was carried out in a culture chamber at 25° C. and 5,000 Lux (12-hour day length) Then, on Feb. 1, 2005, a survey was carried out with regard to the growth conditions of aerial part and underground part, the number of roots and the number of lateral buds. The results are shown in Table 9 (effect of addition of rare sugar on the growth of seedlings of Cymbidium).

[1] = tested on: Pythium ultimum IFO 32426 strain; assay: Oospore formation of Pythium ultimum in sugar solution; assay type: cell-based; conditions: 0.05% (w/v) sugar solution, 23° C., 4 days
Procedure: With regard to Pythium ultimum that causes damping-off of spinach and the like, an effect of a rare sugar on oospore formation was examined.
First, as the Pythium ultimum, IFO 32426 strain was used, and static culture thereof was carried out with 200 ml of V8 medium at 23° C. for 1 week. The resulting mycelial mat was well washed with sterile water and divided into 16 equal parts with forceps. This mycerial body was disentangled uniformly to form a small piece and immersed in 20 ml of a sugar solution at a concentration of 0.05% (w/v) and let stand at 23° C. for 4 days. […] Further, the same experiment was carried out using Pythium zingiberum IFO 30817 strain.

[2] = tested on: rice plant (variety: “Hinohikari”); assay: Foliar spraying of sugar on pot-grown rice; assay type: in vivo
Procedure: After seeds of a rice plant (variety: “Hinohikari”) were put in a nylon net and subjected to sterilization and a germination induction treatment in a growth chamber at 30° C. for 2 days while they were soaked in 0.1% (w/v) Benlate (Hokko Chemical Industry Co., Ltd.) in accordance with a common method, they were sown in a nursery tray filled with “Kumiai Ryujou Baido SD” (Kureha Chemical Industry Co., Ltd.) and raised in a phytotron (day temperature: 25° C. and night temperature: 18° C.) for about 2 weeks. Then, Wagner pots with a size of 1/5,000a were filled with “Kumiai Ryujou Baido SD” (Kureha Chemical Industry Co., Ltd.) and the raised rice seedlings were transplanted for permanent planting to the pots and the cultivation was started on Jul. 2, 2003 in the open air under the condition that the soil was covered with water in the pots. From Jul. 16, 2003, when the seedlings were confirmed to take root, water, a 0.02% (w/v) sugar solution, a 0.1% (w/v) sugar solution or a 0.5% (w/v) sugar solution was sprayed onto the whole plant on a three times weekly basis. As for the types of sugars, D-glucose, D-fructose and D-psicose were used and three pots were cultivated for each test plot. The cultivation was continued in such a manner that the water in pots was not dried up and after 5 g of Magamp K medium (HYPONeX JAPAN CORP., Ltd.) per pot was added as additional fertilization on Aug. 29, 2003, and the harvest and survey were carried out on Sep. 22, 2003. The survey items were plant length, number of tillers, leaf weight, husk weight, underground part weight and the like.

Phalaenopsis orchid = assay: Growth of Phalaenopsis orchid flask seedlings in tissue culture; assay type: in vivo; conditions: 0.005% in MS medium
Procedure: as §1
As for Phalaenopsis orchid, MS medium supplemented with D-psicose, D-glucose or D-fructose at a concentration of 0.005% (w/v) was used, and the flask seedlings were aseptically transplanted on Sep. 6, 2004. As for the number of seedlings, 4 seedlings were used for 1 test plot, and glass bottles with a capacity of 500 ml and having a hole with a diameter of about 1 cm for preventing dew condensation made in the upper region was used as culture containers. The cultivation was carried out in a culture chamber at 25° C. and 5,000 Lux (12-hour day length) Then, on Jan. 24, 2005, a survey was carried out with regard to the growth conditions of aerial part and underground part and the number of roots. The results are shown in Table 8 (effect of addition of D-psicose on the growth of seedlings of Phalaenopsis orchid).

O=C[C@H](O)[C@H](O)[C@H](O)[C@H](O)CO [D-allose]
growth when the concentration added to the medium was increased (Bletilla striata): the growth thereof was delayed
Aerial part weight (Bletilla striata; sugar 0.005% in medium): 0.19 g
Bulb size (Bletilla striata; sugar 0.005% in medium): 4.5 mm
Maximum plant length (Bletilla striata; sugar 0.005% in medium): 7.6 cm
Maximum root length (Bletilla striata; sugar 0.005% in medium): 4.2 cm
Number of buds (Bletilla striata; sugar 0.005% in medium): 3.4
Number of leaves (Bletilla striata; sugar 0.005% in medium): 4.2
Ratio of bulb formation (Bletilla striata; sugar 0.005% in medium): 84%
Underground part weight (Bletilla striata; sugar 0.005% in medium): 0.10 g
Aerial part weight (Bletilla striata; sugar 0.02% in medium): 0.19 g
Bulb size (Bletilla striata; sugar 0.02% in medium): 4.2 mm
Maximum plant length (Bletilla striata; sugar 0.02% in medium): 7.5 cm
Maximum root length (Bletilla striata; sugar 0.02% in medium): 4.1 cm
Number of buds (Bletilla striata; sugar 0.02% in medium): 3.6
Number of leaves (Bletilla striata; sugar 0.02% in medium): 3.9
Ratio of bulb formation (Bletilla striata; sugar 0.02% in medium): 85%
Underground part weight (Bletilla striata; sugar 0.02% in medium): 0.12 g
Aerial part weight (Bletilla striata; sugar 0.05% in medium): 0.25 g
Bulb size (Bletilla striata; sugar 0.05% in medium): 4.9 mm
Maximum plant length (Bletilla striata; sugar 0.05% in medium): 7.7 cm
Maximum root length (Bletilla striata; sugar 0.05% in medium): 4.2 cm
Number of buds (Bletilla striata; sugar 0.05% in medium): 2.7
Number of leaves (Bletilla striata; sugar 0.05% in medium): 4.3
Ratio of bulb formation (Bletilla striata; sugar 0.05% in medium): 85%
Underground part weight (Bletilla striata; sugar 0.05% in medium): 0.12 g
Number of lateral buds (Cymbidium): 3.8 buds
Aerial part weight (Cymbidium): 2.7 g
Underground part weight (Cymbidium): 4.0 g
Number of roots (Cymbidium): 12.8 roots
oospore formation [1]: not observed at all

O=C(CO)[C@H](O)[C@H](O)[C@H](O)CO [D-psicose]
Dry husk weight ([2]; 0.02% sugar solution sprayed): 16.8 g
Dry leaf weight ([2]; 0.02% sugar solution sprayed): 36.3 g
Number of tillers ([2]; 0.02% sugar solution sprayed): 33.7
Plant length ([2]; 0.02% sugar solution sprayed): 73.2 cm
Dry husk weight ([2]; 0.10% sugar solution sprayed): 14.7 g
Dry leaf weight ([2]; 0.10% sugar solution sprayed): 31.8 g
Number of tillers ([2]; 0.10% sugar solution sprayed): 33.5
Plant length ([2]; 0.10% sugar solution sprayed): 76.3 cm
Dry husk weight ([2]; 0.50% sugar solution sprayed): 10.2 g
Dry leaf weight ([2]; 0.50% sugar solution sprayed): 27.9 g
Number of tillers ([2]; 0.50% sugar solution sprayed): 50.0
Plant length ([2]; 0.50% sugar solution sprayed): 71.3 cm
growth when the concentration added to the medium was increased (Bletilla striata): the growth thereof was delayed
Aerial part weight (Bletilla striata; sugar 0.005% in medium): 0.24 g
Bulb size (Bletilla striata; sugar 0.005% in medium): 6.2 mm
Maximum plant length (Bletilla striata; sugar 0.005% in medium): 9.3 cm
Maximum root length (Bletilla striata; sugar 0.005% in medium): 4.4 cm
Number of buds (Bletilla striata; sugar 0.005% in medium): 4.1
Number of leaves (Bletilla striata; sugar 0.005% in medium): 3.9
Ratio of bulb formation (Bletilla striata; sugar 0.005% in medium): 45%
Underground part weight (Bletilla striata; sugar 0.005% in medium): 0.26 g
Aerial part weight (Bletilla striata; sugar 0.02% in medium): 0.28 g
Bulb size (Bletilla striata; sugar 0.02% in medium): 5.6 mm
Maximum plant length (Bletilla striata; sugar 0.02% in medium): 9.9 cm
Maximum root length (Bletilla striata; sugar 0.02% in medium): 4.8 cm
Number of buds (Bletilla striata; sugar 0.02% in medium): 3.3
Number of leaves (Bletilla striata; sugar 0.02% in medium): 3.9
Ratio of bulb formation (Bletilla striata; sugar 0.02% in medium): 65%
Underground part weight (Bletilla striata; sugar 0.02% in medium): 0.22 g
Aerial part weight (Bletilla striata; sugar 0.05% in medium): 0.20 g
Bulb size (Bletilla striata; sugar 0.05% in medium): 5.1 mm
Maximum plant length (Bletilla striata; sugar 0.05% in medium): 7.3 cm
Maximum root length (Bletilla striata; sugar 0.05% in medium): 5.3 cm
Number of buds (Bletilla striata; sugar 0.05% in medium): 4.0
Number of leaves (Bletilla striata; sugar 0.05% in medium): 3.9
Ratio of bulb formation (Bletilla striata; sugar 0.05% in medium): 67%
Underground part weight (Bletilla striata; sugar 0.05% in medium): 0.13 g
Number of lateral buds (Cymbidium): 0.5 buds
Aerial part weight (Cymbidium): 2.0 g
Underground part weight (Cymbidium): 4.1 g
Number of roots (Cymbidium): 10.8 roots
oospore formation [1]: inhibited
Underground part weight (Phalaenopsis orchid; non 2.9): 4.1 g
Aerial part weight (Phalaenopsis orchid; non 4.7): 6.1 g
Number of roots (Phalaenopsis orchid; non 12.5): 16.0 roots
